The source of these data is ChEMBL document CHEMBL5726044, “Imidazopyridazines as Akt kinase inhibitors” (2017).

For test [1], the target named is RAC-beta serine/threonine-protein kinase (Homo sapiens, UniProt P31751). The experiment in a line: Kinase Assay: His-tagged human recombinant kinase full-length Akt2 expressed in insect cells and activated by PDK1 was purchased form Invitrogen (part number PV 3975). As substrate for the kinase reaction the biotinylated peptide biotin-Ahx-[…] (C-terminus in amide form) was used which can be purchased e.g. from the company Biosynthan GmbH (Berlin-Buch, Germany). For the assay 50 nl of a 100 fold concentrated solution of the test compound in DMSO was pipetted into a black low volume 384 well microtiter plate (Greiner Bio-One, Frickenhausen, Germany), 2 μl of a solution of Akt2 in assay buffer [50 mM TRIS/HCl pH 7.5, 5 mM MgCl2, 1 mM dithiothreitol, 0.02% (v/v) Triton X-100 (Sigma)] were added and the mixture was incubated for 15 min at 22° C. to allow pre-binding of the test compounds to the enzyme before the start of the kinase reaction. Then the kinase reaction was started by the addition of 3 μl of a solution of adenosine-tri-phosphate (ATP, 16.7 μM=>final conc. in the 5 μl assay volume is 10 μM) and substrate (1.67 μM=>final conc. in the 5 μl assay volume is 1 μM) in assay buffer and the resulting mixture was incubated for a reaction time of 60 min at 22° C. The concentration of Akt2 in the assay was adjusted depending of the activity of the enzyme lot and was chosen appropriate to have the assay in the linear range, typical enzyme concentrations were in the range of about 0.2 ng/μl (final conc. in the 5 μl assay volume). The reaction was stopped by the addition of 5 μl of a solution of HTRF detection reagents (200 nM streptavidine-XL665 [Cisbio] and 1.5 nM anti-phosho-Serine antibody [Millipore, cat. #35-001] and 0.75 nM LANCE Eu-W 1024 labeled anti-mouse IgG antibody [Perkin Elmer]) in an aqueous EDTA-solution (100 mM EDTA, 0.1% (w/v) bovine serum albumin in 50 mM HEPES/NaOH pH 7.5). The resulting mixture was incubated 1 h at 22° C. to allow the binding of the biotinylated phosphorylated peptide to the streptavidine-XL665 and the antibodies.
RAC-beta serine/threonine-protein kinase, sequence (P31751 whole entry): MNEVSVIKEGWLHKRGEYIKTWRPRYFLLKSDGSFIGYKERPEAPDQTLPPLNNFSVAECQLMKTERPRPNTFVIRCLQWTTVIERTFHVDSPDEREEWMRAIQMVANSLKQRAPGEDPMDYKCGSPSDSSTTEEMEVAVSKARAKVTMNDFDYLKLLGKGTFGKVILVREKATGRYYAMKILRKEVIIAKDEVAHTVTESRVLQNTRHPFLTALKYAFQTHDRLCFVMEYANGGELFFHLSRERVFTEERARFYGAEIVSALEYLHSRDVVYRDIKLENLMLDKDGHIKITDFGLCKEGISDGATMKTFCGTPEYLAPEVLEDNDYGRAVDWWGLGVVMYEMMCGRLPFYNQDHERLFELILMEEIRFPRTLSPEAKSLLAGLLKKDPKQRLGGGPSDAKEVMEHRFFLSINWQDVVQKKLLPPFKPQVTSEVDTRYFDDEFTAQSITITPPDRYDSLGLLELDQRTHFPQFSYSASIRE

Test [2] has as its target RAC-alpha serine/threonine-protein kinase (Homo sapiens, UniProt P31749). The experiment in a line: Kinase Assay: For the assay 50 nl of a 100 fold concentrated solution of the test compound in DMSO was pipetted into a black low volume 384 well microtiter plate (Greiner Bio-One, Frickenhausen, Germany), 2 μl of a solution of Akt1 in assay buffer [50 mM TRIS/HCl pH 7.5, 5 mM MgCl2, 1 mM dithiothreitol, 0.02% (v/v) Triton X-100 (Sigma)] were added and the mixture was incubated for 15 min at 22° C. to allow pre-binding of the test compounds to the enzyme before the start of the kinase reaction. Then the kinase reaction was started by the addition of 3 μl of a solution of adenosine-tri-phosphate (ATP, 16.7 μM=>final conc. in the 5 μl assay volume is 10 μM) and substrate (1.67 μM=>final conc. in the 5 μl assay volume is 1 μM) in assay buffer and the resulting mixture was incubated for a reaction time of 60 min at 22° C. The concentration of Akt1 in the assay was adjusted depending of the activity of the enzyme lot and was chosen appropriate to have the assay in the linear range, typical enzyme concentrations were in the range of about 0.05 ng/μl (final conc. in the 5 μl assay volume). The reaction was stopped by the addition of 5 μl of a solution of HTRF detection reagents (200 nM streptavidine-XL665 [Cisbio] and 1.5 nM anti-phosho-Serine antibody [Millipore, cat. #35-001] and 0.75 nM LANCE Eu-W 1024 labeled anti-mouse IgG antibody [Perkin Elmer]) in an aqueous EDTA-solution (100 mM EDTA, 0.1% (w/v) bovine serum albumin in 50 mM HEPES/NaOH pH 7.5). The resulting mixture was incubated 1 h at 22° C. to allow the binding of the biotinylated phosphorylated peptide to the streptavidine-XL665 and the antibodies. Subsequently the amount of phosphorylated substrate was evaluated by measurement of the resonance energy transfer from the anti-mouse-IgG-Eu-Chelate to the streptavidine-XL665. Therefore, the fluorescence emissions at 620 nm and 665 nm after excitation at 350 nm was measured in a HTRF reader, e.g. a Rubystar (BMG Labtechnologies, Offenburg, Germany) or a Viewlux (Perkin-Elmer).

RAC-alpha serine/threonine-protein kinase, sequence (P31749 whole entry): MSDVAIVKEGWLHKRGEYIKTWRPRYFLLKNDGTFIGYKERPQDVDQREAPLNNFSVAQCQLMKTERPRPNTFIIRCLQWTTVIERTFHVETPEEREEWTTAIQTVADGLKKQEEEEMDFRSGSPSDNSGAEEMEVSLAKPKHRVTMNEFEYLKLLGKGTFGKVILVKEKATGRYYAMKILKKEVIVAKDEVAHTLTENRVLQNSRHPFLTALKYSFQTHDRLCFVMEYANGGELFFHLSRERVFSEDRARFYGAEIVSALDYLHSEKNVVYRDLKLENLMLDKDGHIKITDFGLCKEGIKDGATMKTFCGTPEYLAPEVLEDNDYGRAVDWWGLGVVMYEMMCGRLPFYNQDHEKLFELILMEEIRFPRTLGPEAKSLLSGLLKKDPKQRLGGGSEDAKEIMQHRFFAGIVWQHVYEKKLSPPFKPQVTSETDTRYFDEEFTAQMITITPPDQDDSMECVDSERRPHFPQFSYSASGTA

For `NC(=O)c1ccnn2c(-c3ccccc3)c(-c3ccc(C4(N)CCC4)cc3)nc12`, the IC50 in test [1] was 110 nM; in test [2] it was 65 nM.

Take `NC1(c2ccc(-c3nc4ccc(C(F)(F)F)nn4c3-c3ccccc3)cc2)CCC1`: the IC50 came out at 70 nM in test [1] and 120 nM in test [2].

For `CCOc1nn2c(-c3ccccc3)c(-c3ccc(C4(N)CCC4)cc3)nc2c(C)c1C`, the values for the IC50 in test [1] and in test [2] were 56 nM and 45 nM, respectively.
